Source: PubChem BioAssay (NCI)
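Values below derive from 48-hour exposures of cells grown in 96-well plates, with endpoints linearly interpolated between the two concentrations bracketing the appropriate inhibition level. The concentration for full growth arrest is given as TGI.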

Tests used:
Assay in all cases: DTP human tumour cell line panel, 48 h
SF-295 CNS = test system: SF-295 CNS
EKVX NSCLC = test system: EKVX NSCLC
HCT-15 colon = test system: HCT-15 colon
COLO 205 colon = test system: COLO 205 colon
HOP-92 NSCLC = test system: HOP-92 NSCLC
U251 CNS = test system: U251 CNS
MDA-MB-231 breast = test system: MDA-MB-231 breast
OVCAR-4 ovarian = test system: OVCAR-4 ovarian
OVCAR-5 ovarian = test system: OVCAR-5 ovarian
UACC-257 melanoma = test system: UACC-257 melanoma
HT29 colon = test system: HT29 colon
A498 renal = test system: A498 renal
786-0 renal = test system: 786-0 renal
RPMI-8226 leukemia = test system: RPMI-8226 leukemia
OVCAR-8 ovarian = test system: OVCAR-8 ovarian
NCI-H23 lung = test system: NCI-H23 lung
MCF7 breast = test system: MCF7 breast
LOX IMVI melanoma = test system: LOX IMVI melanoma
HL-60(TB) leukemia = test system: HL-60(TB) leukemia
RXF 393 renal = test system: RXF 393 renal
PC-3 prostate = test system: PC-3 prostate
K-562 leukemia = test system: K-562 leukemia
ACHN renal = test system: ACHN renal
NCI-H460 lung = test system: NCI-H460 lung
TK-10 renal = test system: TK-10 renal
SK-MEL-28 melanoma = test system: SK-MEL-28 melanoma
SN12C renal = test system: SN12C renal
BT-549 breast = test system: BT-549 breast
SNB-75 CNS = test system: SNB-75 CNS
SK-MEL-5 melanoma = test system: SK-MEL-5 melanoma
SK-MEL-2 melanoma = test system: SK-MEL-2 melanoma
NCI/ADR-RES ovarian = test system: NCI/ADR-RES ovarian
KM12 colon = test system: KM12 colon
HOP-62 NSCLC = test system: HOP-62 NSCLC
SF-268 CNS = test system: SF-268 CNS
HCC-2998 colon = test system: HCC-2998 colon
MOLT-4 leukemia = test system: MOLT-4 leukemia
MDA-N = test system: MDA-N
SR leukemia = test system: SR leukemia
NCI-H522 lung = test system: NCI-H522 lung
T-47D breast = test system: T-47D breast
DU-145 prostate = test system: DU-145 prostate
SW-620 colon = test system: SW-620 colon
SK-OV-3 ovarian = test system: SK-OV-3 ovarian
CAKI-1 renal = test system: CAKI-1 renal
M14 melanoma = test system: M14 melanoma
A549 NSCLC = test system: A549 NSCLC
MALME-3M melanoma = test system: MALME-3M melanoma
HS 578T breast = test system: HS 578T breast
CCRF-CEM leukemia = test system: CCRF-CEM leukemia
SF-539 CNS = test system: SF-539 CNS
UACC-62 melanoma = test system: UACC-62 melanoma
MDA-MB-435 = test system: MDA-MB-435
NCI-H226 lung = test system: NCI-H226 lung
SNB-19 CNS = test system: SNB-19 CNS
UO-31 renal = test system: UO-31 renal
HCT-116 colon = test system: HCT-116 colon
IGROV1 ovarian = test system: IGROV1 ovarian
OVCAR-3 ovarian = test system: OVCAR-3 ovarian

COCn1c(C)c(C)c2c(=O)oc(=O)[nH]c21
TGI (SF-295 CNS): > 100 µM
TGI (EKVX NSCLC): > 100 µM
TGI (HCT-15 colon): > 100 µM
TGI (COLO 205 colon): > 100 µM
TGI (HOP-92 NSCLC): > 100 µM
TGI (U251 CNS): > 100 µM
TGI (MDA-MB-231 breast): > 100 µM
TGI (OVCAR-4 ovarian): > 100 µM
TGI (OVCAR-5 ovarian): > 100 µM
TGI (UACC-257 melanoma): > 100 µM
TGI (HT29 colon): > 100 µM
TGI (A498 renal): > 100 µM
TGI (786-0 renal): > 100 µM
TGI (RPMI-8226 leukemia): > 100 µM
TGI (OVCAR-8 ovarian): > 100 µM
TGI (NCI-H23 lung): > 100 µM
TGI (MCF7 breast): > 100 µM
TGI (LOX IMVI melanoma): > 100 µM
TGI (HL-60(TB) leukemia): > 100 µM
TGI (RXF 393 renal): > 100 µM
TGI (PC-3 prostate): > 100 µM
TGI (K-562 leukemia): > 100 µM
TGI (ACHN renal): > 100 µM
TGI (NCI-H460 lung): > 100 µM
TGI (TK-10 renal): > 100 µM
TGI (SK-MEL-28 melanoma): > 100 µM
TGI (SN12C renal): > 100 µM
TGI (BT-549 breast): > 100 µM
TGI (SNB-75 CNS): > 100 µM
TGI (SK-MEL-5 melanoma): > 100 µM
TGI (SK-MEL-2 melanoma): > 100 µM
TGI (NCI/ADR-RES ovarian): > 100 µM
TGI (KM12 colon): > 100 µM
TGI (HOP-62 NSCLC): > 100 µM
TGI (SF-268 CNS): > 100 µM
TGI (HCC-2998 colon): > 100 µM
TGI (MOLT-4 leukemia): > 100 µM
TGI (MDA-N): > 100 µM
TGI (SR leukemia): > 100 µM
TGI (NCI-H522 lung): > 100 µM
TGI (T-47D breast): > 100 µM
TGI (DU-145 prostate): > 100 µM
TGI (SW-620 colon): > 100 µM
TGI (SK-OV-3 ovarian): > 100 µM
TGI (CAKI-1 renal): > 100 µM
TGI (M14 melanoma): > 100 µM
TGI (A549 NSCLC): > 100 µM
TGI (MALME-3M melanoma): > 100 µM
TGI (HS 578T breast): > 100 µM
TGI (CCRF-CEM leukemia): > 100 µM
TGI (SF-539 CNS): > 100 µM
TGI (UACC-62 melanoma): > 100 µM
TGI (MDA-MB-435): > 100 µM
TGI (NCI-H226 lung): > 100 µM
TGI (SNB-19 CNS): > 100 µM
TGI (UO-31 renal): > 100 µM
TGI (HCT-116 colon): > 100 µM
TGI (IGROV1 ovarian): > 100 µM

CCSSCS(C)(=O)=O
TGI (SF-295 CNS): > 100 µM
TGI (EKVX NSCLC): > 100 µM
TGI (HCT-15 colon): 32.9 µM
TGI (COLO 205 colon): 23.5 µM
TGI (HOP-92 NSCLC): 73.5 µM
TGI (U251 CNS): > 100 µM
TGI (MDA-MB-231 breast): > 100 µM
TGI (OVCAR-4 ovarian): 40 µM
TGI (OVCAR-5 ovarian): > 100 µM
TGI (UACC-257 melanoma): 57.1 µM
TGI (HT29 colon): > 100 µM
TGI (A498 renal): 96.2 µM
TGI (786-0 renal): 21.4 µM
TGI (OVCAR-8 ovarian): 57.4 µM
TGI (NCI-H23 lung): 98 µM
TGI (MCF7 breast): 68.5 µM
TGI (LOX IMVI melanoma): > 100 µM
TGI (HL-60(TB) leukemia): > 100 µM
TGI (RXF 393 renal): 49.5 µM
TGI (PC-3 prostate): > 100 µM
TGI (K-562 leukemia): 27.2 µM
TGI (ACHN renal): > 100 µM
TGI (NCI-H460 lung): > 100 µM
TGI (TK-10 renal): > 100 µM
TGI (SK-MEL-28 melanoma): > 100 µM
TGI (SN12C renal): 67.8 µM
TGI (BT-549 breast): 96.5 µM
TGI (SNB-75 CNS): 72.6 µM
TGI (SK-MEL-5 melanoma): > 100 µM
TGI (SK-MEL-2 melanoma): > 100 µM
TGI (NCI/ADR-RES ovarian): 83.8 µM
TGI (KM12 colon): > 100 µM
TGI (HOP-62 NSCLC): > 100 µM
TGI (SF-268 CNS): > 100 µM
TGI (HCC-2998 colon): 34.7 µM
TGI (MOLT-4 leukemia): > 100 µM
TGI (MDA-N): > 100 µM
TGI (SR leukemia): > 100 µM
TGI (NCI-H522 lung): 40 µM
TGI (T-47D breast): > 100 µM
TGI (DU-145 prostate): 50.5 µM
TGI (SW-620 colon): > 100 µM
TGI (SK-OV-3 ovarian): > 100 µM
TGI (CAKI-1 renal): > 100 µM
TGI (M14 melanoma): 55.3 µM
TGI (A549 NSCLC): > 100 µM
TGI (MALME-3M melanoma): > 100 µM
TGI (HS 578T breast): > 100 µM
TGI (CCRF-CEM leukemia): > 100 µM
TGI (OVCAR-3 ovarian): 99.2 µM
TGI (SF-539 CNS): 29.5 µM
TGI (UACC-62 melanoma): > 100 µM
TGI (MDA-MB-435): > 100 µM
TGI (NCI-H226 lung): 96.4 µM
TGI (SNB-19 CNS): > 100 µM
TGI (UO-31 renal): 24.4 µM
TGI (HCT-116 colon): > 100 µM
